The values below come from ChEMBL document CHEMBL4715871, “4-Acyl Pyrroles as Dual BET-BRD7/9 Bromodomain Inhibitors Address BETi Insensitive Human Cancer Cell Lines” (J Med Chem, 2020).

In general, Kd refers to the equilibrium constant for the complex coming apart. One may read the GI50 as the concentration giving 50% growth inhibition.

Assay [1] concerns the target T1, Bromodomain-containing protein 4 (Homo sapiens, UniProt O60885). Briefly: Binding affinity to BRD4 BD1 (unknown origin) at 25 degree C by ITC analysis. For orientation: ITC needs no label: the signal is the heat of the interaction.
Another assay deals with HL-60. Briefly: Growth inhibition of human HL60 cells after 72 hrs by CellTiter 96S AQeous non-radioactive cell proliferation assay. Format: functional.
The test system of assay [2] is SK-MEL-5. Briefly: Growth inhibition of human SK-MEL-5 cells after 72 hrs by CellTiter 96S AQeous non-radioactive cell proliferation assay. Format: functional.
Another assay deals with MCF7. Briefly: Growth inhibition of human MCF7 cells after 72 hrs by CellTiter 96S AQeous non-radioactive cell proliferation assay. Format: functional.
Assay [3] concerns SK-MEL-5. Briefly: Cytotoxicity against human SK-MEL-5 cells after 72 hrs by CellTiter 96S AQeous non-radioactive cell proliferation assay. Format: functional. To be noted: read-out: LC50 (the source's name).
The nature of assay [4]: Cytotoxicity against human A498 cells after 72 hrs by CellTiter 96S AQeous non-radioactive cell proliferation assay. Format: functional. To be noted: read-out: LC50 (the source's name).
The subject of the next assay is LOX IMVI. In words: Cytotoxicity against human LOX-IMVI cells after 72 hrs by CellTiter 96S AQeous non-radioactive cell proliferation assay. In kind it is functional. To be noted: read-out: LC50 (the source's name).
A further assay concerns UACC-62. Briefly: Growth inhibition of human UACC-62 cells after 72 hrs by CellTiter 96S AQeous non-radioactive cell proliferation assay. In kind it is functional.
Another assay relates to SNB-75. Briefly: Growth inhibition of human SNB-75 cells after 72 hrs by CellTiter 96S AQeous non-radioactive cell proliferation assay. Format: functional.
A further assay has as its system NCI-H522. In words: Growth inhibition of human NCI-H522 cells after 72 hrs by CellTiter 96S AQeous non-radioactive cell proliferation assay. Format: functional.
The target in assay [5] is T2, Bromodomain-containing protein 9 (Homo sapiens, UniProt Q9H8M2).
T2 sequence (Q9H8M2 whole entry): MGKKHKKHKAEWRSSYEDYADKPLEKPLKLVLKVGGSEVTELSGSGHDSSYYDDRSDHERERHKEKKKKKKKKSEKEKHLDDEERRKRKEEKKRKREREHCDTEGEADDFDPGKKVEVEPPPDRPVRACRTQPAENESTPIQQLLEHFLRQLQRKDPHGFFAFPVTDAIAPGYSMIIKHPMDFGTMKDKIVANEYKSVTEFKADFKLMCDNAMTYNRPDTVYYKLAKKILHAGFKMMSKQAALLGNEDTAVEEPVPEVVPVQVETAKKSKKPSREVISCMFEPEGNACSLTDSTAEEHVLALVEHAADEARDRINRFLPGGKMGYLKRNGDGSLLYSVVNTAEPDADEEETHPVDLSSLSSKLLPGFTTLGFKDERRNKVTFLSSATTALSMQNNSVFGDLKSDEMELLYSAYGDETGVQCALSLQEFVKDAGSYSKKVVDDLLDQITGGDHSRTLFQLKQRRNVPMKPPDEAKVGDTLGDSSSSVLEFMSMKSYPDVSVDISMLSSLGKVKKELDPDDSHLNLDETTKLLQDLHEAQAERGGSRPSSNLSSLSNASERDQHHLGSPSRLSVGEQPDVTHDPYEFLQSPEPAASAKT
In words: Binding affinity to human partial length BRD9 (R130 to V259 residues) by bromoKdELECT Discover assay.

Assay [6] deals with T1, Bromodomain-containing protein 4. Briefly: Binding affinity to human BRD4 BD1 (N44 to E168 aa residues) by bromoKdELECT Discover assay.
Assay [7] shares this target. In words: Binding affinity to BRD4 BD1 (unknown origin) at 37 degree C by ITC analysis.
Assay [8] shares this target. Briefly: Binding affinity to BRD4 BD1 (unknown origin) at 15 degree C by ITC analysis.
Assay [9] is filed under the species Homo sapiens. Briefly: Selectivity index, ratio of Kd for BRD7 (unknown origin) to BRD4 BD1 (unknown origin) by bromoKdELECT Discover assay.
Assay [10] is filed under the species Homo sapiens. Briefly: Selectivity index, ratio of Kd for BRPF1B (unknown origin) to BRD4 BD1 (unknown origin) by bromoKdELECT Discover assay.
Assay [11] is filed under the species Homo sapiens. In words: Selectivity index, ratio of Kd for BRD9 (unknown origin) to BRD4 BD1 (unknown origin) by bromoKdELECT Discover assay.
Assay [12] addresses T1, Bromodomain-containing protein 4. Briefly: Binding affinity to human BRD4 BD1 (N44 to E168 aa residues) at 10 uM by bromoKdELECT Discover assay.

Active and inactive are the calls of the source. The calls are words filed in the database; no cut-off is given here.

Turning to `CCN(CC)S(=O)(=O)c1ccc(OC)c(NC(=O)c2[nH]c(C)c3c2CCCCC3=O)c1`, the affinity in assay [1], expressed as Kd, was 0.14 µM. Moreover, the GI50 amounted to 1.36 µM in the assay on HL-60 (Homo sapiens, HL-60); 16.3 µM in the assay on SK-MEL-5 [2] (Homo sapiens, SK-MEL-5); 6.84 µM in the assay with MCF7 (Homo sapiens, MCF7).
For `COc1ccc(S(=O)(=O)N2CCCCC2)cc1NC(=O)c1[nH]c(C)c2c1CCCCC2=O`, the results for the CC50 (in the assay on SK-MEL-5 [3]; in [4]; in the assay on LOX IMVI) were 12.2 µM, 19.7 µM and 8.17 µM, respectively. The compound further had a Kd in assay [1] of 0.05 µM. For the same compound, the GI50 in the assay with HL-60 (Homo sapiens, HL-60) was determined as 0.491 µM; in the assay on UACC-62, 0.355 µM; in the assay on SNB-75, 0.141 µM; in the assay on NCI-H522, 0.372 µM; in the assay on SK-MEL-5 [2] (Homo sapiens, SK-MEL-5), 6.79 µM; in the assay on MCF7 (Homo sapiens, MCF7) it was 4.06 µM.
`CCc1c(C(=O)NCc2c(O)ccc3cccc(O)c23)[nH]c(C)c1C(C)=O`: the concentration for 50% growth inhibition (GI50) in the assay on HL-60 (Homo sapiens, HL-60) was determined as 1.3 µM; in the assay with SK-MEL-5 [2] (Homo sapiens, SK-MEL-5) it was 4.2 µM; in the assay on MCF7 (Homo sapiens, MCF7) it was 4.2 µM. In addition, the Kd was 2.9 µM in [5] (read-out: Kd) and above 4 µM in assay [6].
Turning to `CC(=O)c1cc(-c2cc(C(=O)NC3CC3)ccc2C)c2ncccn12`, the concentration for 50% growth inhibition (GI50) came out at 1.33 µM in the assay on HL-60 (Homo sapiens, HL-60); 2.77 µM with SK-MEL-5 [2] (Homo sapiens, SK-MEL-5); 4.49 µM in the assay on MCF7 (Homo sapiens, MCF7). In [5], the Kd result is “Not Active”.
With `Cc1sc2c(c1C)C(c1ccc(Cl)cc1)=N[C@@H](CC(=O)OC(C)(C)C)c1nnc(C)n1-2`, the GI50 is 0.021 µM with HL-60, above 40 µM in the assay on SK-MEL-5 [2] and above 50 µM in the assay with MCF7.
Compound `COc1ccc(S(=O)(=O)N2CCCCCC2)cc1NC(=O)c1[nH]c(C)c2c1CCCCC2=O` showed an equilibrium dissociation constant (Kd) in assay [1] of 0.18 µM. For the same compound, the GI50 turned out to be 0.565 µM in the assay with HL-60 (Homo sapiens, HL-60); 6.85 µM in the assay on SK-MEL-5 [2] (Homo sapiens, SK-MEL-5); 3 µM in the assay with MCF7 (Homo sapiens, MCF7).
`CCC(=O)N1CCOc2c(cc(-c3ccc(OC)c(OC)c3)cc2OC[C@H]2CCCN(C)C2)C1`: the 50% growth inhibitory concentration (GI50) with HL-60 (Homo sapiens, HL-60) was above 50 µM; with SK-MEL-5 [2] (Homo sapiens, SK-MEL-5), above 50 µM; with MCF7 (Homo sapiens, MCF7) it was above 50 µM. For the same compound, the Kd entry in [5] is given as “Not Active”.
Consider `CCN(CC)S(=O)(=O)c1ccc(O)c(NC(=O)c2[nH]c(C)c3c2CCCCC3=O)c1`, for which the Kd is 0.07 µM in assay [1], 0.17 µM in assay [7] and below 0.01 µM in [8]. The GI50 in the assay with HL-60 (Homo sapiens, HL-60) is above 40 µM; in the assay with SK-MEL-5 [2] (Homo sapiens, SK-MEL-5) it was above 80 µM; with MCF7 (Homo sapiens, MCF7) it was above 40 µM.
The compound `COc1ccc(S(=O)(=O)N2CCOCC2)cc1NC(=O)c1[nH]c(C)c2c1CCCCC2=O` registered a Kd in [1] of 0.08 µM. In addition, the values for the Ratio in the assay listed under Homo sapiens [9], in the assay listed under Homo sapiens [10] and in the assay listed under Homo sapiens [11] were 1.4, 8.7 and 1.1, respectively. In addition, the 50% growth inhibitory concentration (GI50) in the assay with HL-60 (Homo sapiens, HL-60) amounted to 0.17 µM; in the assay on SK-MEL-5 [2] (Homo sapiens, SK-MEL-5) it was 6.8 µM; in the assay on MCF7 (Homo sapiens, MCF7) it was 7.67 µM.
As for `CCc1c(C(=O)Nc2cc(S(=O)(=O)N(CC)CC)ccc2O)[nH]c(C)c1C(C)=O`, in the assay with HL-60 (Homo sapiens, HL-60), the 50% growth inhibitory concentration (GI50) amounted to 17 µM.
On to `COc1ccc(S(=O)(=O)N2CCCCC2)cc1NC(=O)c1c2c(c(C)n1C)C(=O)CCCC2`, for which the GI50 was above 10 µM in the assay on HL-60 (Homo sapiens, HL-60); above 10 µM in the assay with SK-MEL-5 [2] (Homo sapiens, SK-MEL-5); above 10 µM in the assay with MCF7 (Homo sapiens, MCF7). Further, in [12], the outcome was inactive.
Turning to `Cc1cc(=O)n(C)c2cc(N3C(=O)CC[C@H](NS(=O)(=O)CC(C)C)[C@H]3c3ccc(Cl)cc3)ccc12`, the concentration for 50% growth inhibition (GI50) with HL-60 (Homo sapiens, HL-60) came out at 5.03 µM.
`COc1ccc(S(=O)(=O)N2CCN(C)CC2)cc1NC(=O)c1[nH]c(C)c2c1CCCCC2=O` returned a Kd in assay [1] of 0.42 µM. In addition, the 50% growth inhibitory concentration (GI50) was 2.08 µM with HL-60 (Homo sapiens, HL-60); above 20 µM with SK-MEL-5 [2] (Homo sapiens, SK-MEL-5); above 25 µM in the assay on MCF7 (Homo sapiens, MCF7).
In the same order, the values of `COc1ccc(S(=O)(=O)N2CC3(COC3)C2)cc1NC(=O)c1[nH]c(C)c2c1CCCCC2=O` are 0.26 µM, 0.821 µM, 20.8 µM and 5.76 µM.
